Structures can show the parent of a compound that is named as a salt.

Sequence of human activated kallikrein enzyme (P03952 391-638 limits assumed): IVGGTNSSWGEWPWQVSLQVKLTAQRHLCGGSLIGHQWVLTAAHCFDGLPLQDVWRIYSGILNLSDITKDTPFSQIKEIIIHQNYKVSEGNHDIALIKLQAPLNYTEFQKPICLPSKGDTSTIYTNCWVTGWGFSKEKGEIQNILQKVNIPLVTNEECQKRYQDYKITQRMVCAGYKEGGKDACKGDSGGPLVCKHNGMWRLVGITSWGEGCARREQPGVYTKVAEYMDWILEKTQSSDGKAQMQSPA
Sequence of human activated kallikrein enzyme (P03952 20-390 partner limits assumed): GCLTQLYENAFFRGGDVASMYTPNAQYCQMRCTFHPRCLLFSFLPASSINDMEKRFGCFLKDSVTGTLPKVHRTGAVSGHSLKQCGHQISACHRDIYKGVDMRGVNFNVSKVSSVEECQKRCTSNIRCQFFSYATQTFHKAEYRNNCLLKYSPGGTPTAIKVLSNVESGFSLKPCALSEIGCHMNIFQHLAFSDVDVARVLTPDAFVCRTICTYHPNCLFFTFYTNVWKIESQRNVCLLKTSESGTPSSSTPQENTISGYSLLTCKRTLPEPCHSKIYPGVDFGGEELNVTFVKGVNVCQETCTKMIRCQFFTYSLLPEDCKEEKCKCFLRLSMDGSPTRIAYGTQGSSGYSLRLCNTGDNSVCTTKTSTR

The assay has as its target human activated kallikrein enzyme (Homo sapiens, UniProt P03952). Briefly: Inhibition of human activated plasma kallikrein, fluorogenic PFR-AMC substrate, 500 pM enzyme format. To be noted: 500 pM activated kallikrein; 300 μM PFR-AMC; 30 min preincubation; 10 min room temperature; pH 7.5; read-out: Primary Dose Response Assay: Average EC50. The assay is classed as biochemical. The procedure, abridged:
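500 pM activated kallikrein preincubated 30 min at room temperature with inhibitors in pH 7.5 Tris/EDTA/NaCl buffer with PEG-400 and Triton X-100. Reaction started with 300 μM PFR-AMC, run 10 min at room temperature; AMC fluorescence read at ex 380/em 460 nm.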
In general, EC50 refers to the concentration at which the effect is half-maximal. As to `Cc1cc2c(N)nccc2c(C)c1CNC(=O)c1cnn(Cc2ccc(CC(=O)N3C[C@@H]4[C@H](CF)[C@@H]4C3)cc2)c1` [Example 206, N-((1-amino-5,7-dimethylisoquinolin-6-yl)methyl)-1-(4-(2-((1R,5S,6s)-6-(fluoromethyl)-3-azabicyclo[3.1.0]hexan-3-y1)-2-oxoethyl)benzyl)-1H-pyrazole-4-carboxamide], the EC50 lay within 1 to 10 nM. To `Cc1cc2c(N)nccc2c(C)c1CNC(=O)c1cnn(Cc2ccc(CC(=O)N3C[C@@H]4[C@H](C)[C@@H]4C3)cc2)c1` [Example 205, N-((1-amino-5,7-dimethylisoquinolin-6-yl)methyl)-1-(4-(2-((1R,5S,6r)-6-methyl-3-azabicyclo[3.1.0]hexan-3-y1)-2-oxoethyl)benzyl)-1H-pyrazole-4-carboxamide] belongs less than 1 nM; to `Cc1cnc2ccc(CNc3cc(NCc4c(C)cc5c(N)nccc5c4C)ncn3)cc2c1` [Example 336, N^4-((1-amino-5,7-dimethylisoquinolin-6-yl)methyl)-N^6-((3-methylquinolin-6-yl)methyl)pyrimidine-4,6-diamine], less than 1 nM.

As to `Cc1cc2c(N)nccc2c(C)c1CNC(=O)c1cnn(Cc2ccc3c(-n4ccccc4=O)cccc3c2)c1` [Example 125, N-((1-amino-5,7-dimethylisoquinolin-6-yl)methyl)-1-((5-(2-oxopyridin-1(2H)-yl)naphthalen-2-yl)methyl)-1H-pyrazole-4-carboxamide], the concentration giving a half-maximal response (EC50) was less than 1 nM. To `Cc1cc2c(N)nccc2c(C)c1CNc1cc(OCc2ccc(CCn3cccn3)cc2)cnn1` [Example 278, 6-(((5-((4-(2-(1H-pyrazol-1-yl)ethyl)benzyl)oxy)pyridazin-3-yl)amino)methyl)-5,7-dimethylisoquinolin-1-amine] belongs 1 to 10 nM; to `Cc1cc2c(N)nccc2c(C)c1CNc1cc(NCc2ccc3c(c2)N(C)C(=O)CO3)ncn1` [Example 327, 6-(((6-(((1-amino-5,7-dimethylisoquinolin-6-yl)methyl)amino)pyrimidin-4-yl)amino)methyl)-4-methyl-2H-benzo[b][1,4]oxazin-3(4H)-one, formic acid salt], 1 to 10 nM; to `CC(=O)Nc1nccc2c(C)c(CNC(=O)c3cnn(Cc4ccc5ncc(Cl)cc5c4)c3)c(C)cc12` [Example 133, N-((1-acetamido-5,7-dimethylisoquinolin-6-yl)methyl)-1-((3-chloroquinolin-6-yl)methyl)-1H-pyrazole-4-carboxamide], 10 to 100 nM. To `CCOC(=O)CCc1nc(NCc2c(C)cc3c(N)nccc3c2C)cc(OCc2cn3cc(C4CC4)cnc3n2)n1` [Example 291, ethyl 3-(4-(((1-amino-5,7-dimethylisoquinolin-6-yl)methyl)amino)-6-((6-cyclopropylimidazo[1,2-a]pyrimidin-2-yl)methoxy)pyrimidin-2-yl)propanoate] belongs 1 to 10 nM; to `CCc1c(Cl)ccc2nc(Cn3cc(C(=O)NCc4c(C)cc5c(N)nccc5c4C)cn3)cn12` [Example 141, N-((1-amino-5,7-dimethylisoquinolin-6-yl)methyl)-1-((6-chloro-5-ethylimidazo[1,2-a]pyridin-2-yl)methyl)-1H-pyrazole-4-carboxamide], less than 1 nM.

Turning to `Cc1cc2c(N)nccc2c(C)c1CNC(=O)c1cnn([C@@H](C)c2ccccc2)c1` [Example 34, (S)-N-((1-amino-5,7-dimethylisoquinolin-6-yl)methyl)-1-(1-phenylethyl)-1H-pyrazole-4-carboxamide], the EC50 was 100 to 1000 nM. In the case of `Cc1cc(Cn2cc(C(=O)NCc3c(C)cc4c(N)nccc4c3C)cn2)cc(C)c1Cc1ccccn1` [Example 169, N-((1-amino-5,7-dimethylisoquinolin-6-yl)methyl)-1-(3,5-dimethyl-4-(pyridin-2-ylmethyl)benzyl)-1H-pyrazole-4-carboxamide] it was less than 1 nM; in that of `Cc1cc2c(N)nccc2c(C)c1CNc1cc(OCc2ccc(Cn3cccn3)cn2)cnn1` [Example 446, 6-(((5-((5-((1H-pyrazol-1-yl)methyl)pyridin-2-yl)methoxy)pyridazin-3-yl)amino)methyl)-5,7-dimethylisoquinolin-1-amine], less than 1 nM; in that of `Cc1cc2c(N)nccc2c(C)c1CNc1cnnc(OCc2ccc(CC(=O)N(C)C)cc2)c1` [Example I-462, 2-(4-(((5-(((1-amino-5,7-dimethylisoquinolin-6-yl)methyl)amino)pyridazin-3-yl)oxy)methyl)phenyl)-N,N-dimethylacetamide], greater than 1000 nM. In the case of `Cc1cc2c(N)nccc2c(C)c1CNc1cc(NCc2ccc(Cc3cc[nH]n3)cc2)ncn1` [Example 358, N^4-(4-((1H-pyrazol-3-yl)methyl)benzyl)-N^6-((1-amino-5,7-dimethylisoquinolin-6-yl)methyl)pyrimidine-4,6-diamine] it was 1 to 10 nM; in that of `Cc1cc2c(N)nccc2c(C)c1CNC(=O)c1cnn(Cc2ccc(CC(=O)Nc3ccccc3)cc2)c1` [Example 227, N-((1-amino-5,7-dimethylisoquinolin-6-yl)methyl)-1-(4-(2-oxo-2-(phenylamino)ethyl)benzyl)-1H-pyrazole-4-carboxamide], 10 to 100 nM.

Take `Cc1ccn2cc(CNc3cc(NCc4c(C)cc5c(N)nccc5c4C)ncn3)nc2c1` [Example 322, N^4-((1-amino-5,7-dimethylisoquinolin-6-yl)methyl)-N^6-((7-methylimidazo[1,2-a]pyridin-2-yl)methyl)pyrimidine-4,6-diamine]: the EC50 lay within 1 to 10 nM. To `C/C=C(/c1ccc(CNc2cc(NCc3c(C)cc4c(N)nccc4c3C)ncn2)cc1)n1cccn1` [Example I-483, (Z)—N^4-(4-(1-(1H-pyrazol-1-yl)prop-1-en-1-yl)benzyl)-N^6-((1-amino-5,7-dimethylisoquinolin-6-yl)methyl)pyrimidine-4,6-diamine] belongs less than 1 nM; to `Cc1cc2c(N)nccc2c(C)c1CNC(=O)c1cnn(Cc2cn3ccc(C4CC4)cc3n2)c1` [Example 100, N-((1-amino-5,7-dimethylisoquinolin-6-yl)methyl)-1-((7-cyclopropylimidazo[1,2-a]pyridin-2-yl)methyl)-1H-pyrazole-4-carboxamide], less than 1 nM; to `Cc1cc2c(N)nccc2c(C)c1CNc1cc(OCc2ccc3ncccc3c2)ncn1` [Example 374, 5,7-dimethyl-6-(((6-(quinolin-6-ylmethoxy)pyrimidin-4-yl)amino)methyl)isoquinolin-1-amine], 10 to 100 nM. In the case of `Cc1cc2c(N)nccc2c(C)c1CNc1cc2c(cn1)c(F)cn2Cc1cc2cc(C3CC3)cnc2s1` [Example 286, 6-(((1-((5-cyclopropylthieno[2,3-b]pyridin-2-yl)methyl)-3-fluoro-1H-pyrrolo[3,2-c]pyridin-6-yl)amino)methyl)-5,7-dimethylisoquinolin-1-amine] it was 1 to 10 nM; in that of `Cc1cc2c(N)nccc2c(C)c1CNc1cc(OCc2ccc(Cn3ccc(C4CC4)n3)cc2)cnn1` [Example 431, 6-(((5-((4-((3-cyclopropyl-1H-pyrazol-1-yl)methyl)benzyl)oxy)pyridazin-3-yl)amino)methyl)-5,7-dimethylisoquinolin-1-amine], less than 1 nM. In the case of `Cc1cc2c(N)nccc2c(C)c1CNC(=O)c1cnn(Cc2ccc(CC(=O)N(C)C)c(C(F)(F)F)c2)c1` [Example 152, N-((1-amino-5,7-dimethylisoquinolin-6-yl)methyl)-1-(4-(2-(dimethylamino)-2-oxoethyl)-3-(trifluoromethyl)benzyl)-1H-pyrazole-4-carboxamide] it was less than 1 nM; in that of `CCOC(=O)C(C)(C)Cc1cc(C2CC2)cc2cc(COc3cc(NCc4c(C)cc5c(N)nccc5c4C)ncn3)nn12` [Example 396, ethyl 3-(2-(((6-(((1-amino-5,7-dimethylisoquinolin-6-yl)methyl)amino)pyrimidin-4-yl)oxy)methyl)-5-cyclopropylpyrazolo[1,5-a]pyridin-7-yl)-2,2-dimethylpropanoate], 1 to 10 nM. Take `Cc1cc2c(N)nccc2c(C)c1CNc1cc(NCc2ccc(OCC(=O)N3CCCC3)cc2)ncn1` [Example 345, 2-(4-(((6-(((1-amino-5,7-dimethylisoquinolin-6-yl)methyl)amino)pyrimidin-4-yl)amino)methyl)phenoxy)-1-(pyrrolidin-1-yl)ethan-1-one]: the concentration for a half-maximal effect (EC50) was less than 1 nM. In the case of `Cc1cc2c(N)nccc2c(C)c1CNc1cc2c(ccn2Cc2ccc3ncccc3c2)cn1` [Example 517, 5,7-dimethyl-6-(((1-(quinolin-6-ylmethyl)-1H-pyrrolo[3,2-c]pyridin-6-yl)amino)methyl)isoquinolin-1-amine] it was 100 to 1000 nM. To `Cc1cc2c(N)nccc2c(C)c1CNC(=O)c1cnn(Cc2ccc3c(Br)cccc3c2)c1` [Example 113, N-((1-amino-5,7-dimethylisoquinolin-6-yl)methyl)-1-((5-bromonaphthalen-2-yl)methyl)-1H-pyrazole-4-carboxamide] belongs 1 to 10 nM. In the case of `Cc1nnc(Cc2ccc(CNc3cc(NCc4c(C)cc5c(N)nccc5c4C)ncn3)cc2)s1` [Example 343, N^4-((1-amino-5,7-dimethylisoquinolin-6-yl)methyl)-N^6-(4-((5-methyl-1,3,4-thiadiazol-2-yl)methyl)benzyl)pyrimidine-4,6-diamine] it was greater than 1000 nM; in that of `Cc1cc2c(N)nccc2c(C)c1CNC(=O)c1cnn(Cc2cc3cc(Cl)ccc3s2)c1` [Example 65, N-((1-amino-5,7-dimethylisoquinolin-6-yl)methyl)-1-((5-chlorobenzo[b]thiophen-2-yl)methyl)-1H-pyrazole-4-carboxamide], less than 1 nM. Regarding `Cc1cc2c(N)nccc2c(C)c1CNC(=O)c1cnn(Cc2ccc3ncc(O)cc3c2)c1` [Example 164, N-((1-amino-5,7-dimethylisoquinolin-6-yl)methyl)-1-((3-hydroxyquinolin-6-yl)methyl)-1H-pyrazole-4-carboxamide], the EC50 lay in the range of 1 to 10 nM.

(Values after US20260374754A1, “N-((ISOQUINOLIN-6-YL)METHYL)-1H-PYRAZOLE-4-CARBOXAMIDE DERIVATIVES AS PLASMA KALLIKREIN INHIBITORS FOR THE TREATMENT OF HEREDITARY ANGIODEMA” (Takeda Pharmaceutical Company Limited, priority 2022, published 2026).)
